Measurements taken from ChEMBL document CHEMBL3885881, “DrugMatrix”.

Organism: Rattus norvegicus
Assay: DrugMatrix - Regimen: Daily Repeat
Format: toxicity, organism-based, Sprague-Dawley
Set-up: regimen Daily Repeat, gender Male, age 6-8 weeks
Conditions: in vivo, po, route oral GAVAGE, […]; for ABSOLUTE BASOPHIL / BASOPHIL / ABSOLUTE EOSINOPHIL / ABSOLUTE LYMPHOCYTE / ABSOLUTE MONOCYTE / ABSOLUTE SEGMENTED NEUTROPHIL / EOSINOPHIL / ERYTHROCYTE COUNT / HEMATOCRIT / HEMOGLOBIN / LEUKOCYTE COUNT / LYMPHOCYTE / MEAN CORPUSCULAR HEMOGLOBIN / MEAN CORPUSCULAR HEMOGLOBIN CONCENTRATION / MEAN CORPUSCULAR VOLUME / MONOCYTE / NEUTROPHIL / NUCLEATED RED BLOOD CELLS / PLATELET COUNT: tissue Blood; for ALANINE AMINOTRANSFERASE / ALBUMIN / ALKALINE PHOSPHATASE / ASPARTATE AMINOTRANSFERASE / BLOOD UREA NITROGEN / CARBON DIOXIDE / CHOLESTEROL / CREATINE PHOSPHOKINASE / CREATININE / GLUCOSE / LACTATE DEHYDROGENASE / LIPASE / TOTAL BILIRUBIN / TOTAL PROTEIN / URIC ACID: tissue Plasma
[1] = 0 mg/kg, 72 h, dose level Control, time 3 day
[2] = 0 mg/kg, 120 h, dose level Control, time 5 day
[3] = 10 mg/kg, 72 h, dose level M1, time 3 day
[4] = 10 mg/kg, 120 h, dose level M1, time 5 day
[5] = 32 mg/kg, 72 h, dose level M2, time 3 day
[6] = 32 mg/kg, 120 h, dose level M2, time 5 day

CC/C(=C(\c1ccccc1)c1ccc(OCCN(C)C)cc1)c1ccccc1 [TAMOXIFEN]
ABSOLUTE BASOPHIL [1]: 0 CELLS/uL
BASOPHIL [1]: 0%
ABSOLUTE BASOPHIL [2]: 0 CELLS/uL
BASOPHIL [2]: 0%
ABSOLUTE BASOPHIL [3]: 0 CELLS/uL
ABSOLUTE EOSINOPHIL [3]: 39 CELLS/uL
ABSOLUTE LYMPHOCYTE [3]: 8296.33 CELLS/uL
ABSOLUTE MONOCYTE [3]: 168.33 CELLS/uL
ABSOLUTE SEGMENTED NEUTROPHIL [3]: 529.67 CELLS/uL
BASOPHIL [3]: 0%
EOSINOPHIL [3]: 0.33%
ERYTHROCYTE COUNT [3]: 5.69 x10E6/uL
HEMATOCRIT [3]: 36.07%
HEMOGLOBIN [3]: 13.53 G/DL
LEUKOCYTE COUNT [3]: 9.03 x10E3/uL
LYMPHOCYTE [3]: 92.33%
MEAN CORPUSCULAR HEMOGLOBIN [3]: 23.9 pg
MEAN CORPUSCULAR HEMOGLOBIN CONCENTRATION [3]: 37.57 G/DL
MEAN CORPUSCULAR VOLUME [3]: 63.63 fL
MONOCYTE [3]: 1.67%
NEUTROPHIL [3]: 5.67%
NUCLEATED RED BLOOD CELLS [3]: 0 /100WBC
PLATELET COUNT [3]: 1296.33 x10E3/uL
ALANINE AMINOTRANSFERASE [3]: 62.67 u/L
ALBUMIN [3]: 4 G/DL
ALKALINE PHOSPHATASE [3]: 415 u/L
ASPARTATE AMINOTRANSFERASE [3]: 79.33 u/L
BLOOD UREA NITROGEN [3]: 9.67 mg/dL
CARBON DIOXIDE [3]: 28.33 mmol/L
CHOLESTEROL [3]: 52.67 mg/dL
CREATINE PHOSPHOKINASE [3]: 228 u/L
CREATININE [3]: 0.2 mg/dL
GLUCOSE [3]: 179 mg/dL
LACTATE DEHYDROGENASE [3]: 97.33 u/L
LIPASE [3]: 9.33 u/L
TOTAL BILIRUBIN [3]: 0.13 mg/dL
TOTAL PROTEIN [3]: 5.57 G/DL
URIC ACID [3]: 1.9 mg/dL
ABSOLUTE BASOPHIL [4]: 0 CELLS/uL
ABSOLUTE EOSINOPHIL [4]: 119.33 CELLS/uL
ABSOLUTE LYMPHOCYTE [4]: 10935 CELLS/uL
ABSOLUTE MONOCYTE [4]: 173 CELLS/uL
ABSOLUTE SEGMENTED NEUTROPHIL [4]: 706 CELLS/uL
BASOPHIL [4]: 0%
EOSINOPHIL [4]: 1%
ERYTHROCYTE COUNT [4]: 6.34 x10E6/uL
HEMATOCRIT [4]: 39.5%
HEMOGLOBIN [4]: 15 G/DL
LEUKOCYTE COUNT [4]: 11.93 x10E3/uL
LYMPHOCYTE [4]: 91.67%
MEAN CORPUSCULAR HEMOGLOBIN [4]: 23.67 pg
MEAN CORPUSCULAR HEMOGLOBIN CONCENTRATION [4]: 37.97 G/DL
MEAN CORPUSCULAR VOLUME [4]: 62.37 fL
MONOCYTE [4]: 1.33%
NEUTROPHIL [4]: 6%
NUCLEATED RED BLOOD CELLS [4]: 0 /100WBC
PLATELET COUNT [4]: 1194 x10E3/uL
ALANINE AMINOTRANSFERASE [4]: 55.67 u/L
ALBUMIN [4]: 4.53 G/DL
ALKALINE PHOSPHATASE [4]: 463 u/L
ASPARTATE AMINOTRANSFERASE [4]: 84 u/L
BLOOD UREA NITROGEN [4]: 10.33 mg/dL
CARBON DIOXIDE [4]: 27 mmol/L
CHOLESTEROL [4]: 49.33 mg/dL
CREATINE PHOSPHOKINASE [4]: 234 u/L
CREATININE [4]: 0.24 mg/dL
GLUCOSE [4]: 120 mg/dL
LACTATE DEHYDROGENASE [4]: 120 u/L
LIPASE [4]: 9.33 u/L
TOTAL BILIRUBIN [4]: 0.1 mg/dL
TOTAL PROTEIN [4]: 6.33 G/DL
URIC ACID [4]: 2.4 mg/dL
ABSOLUTE BASOPHIL [5]: 0 CELLS/uL
ABSOLUTE EOSINOPHIL [5]: 54 CELLS/uL
ABSOLUTE LYMPHOCYTE [5]: 12289.67 CELLS/uL
ABSOLUTE MONOCYTE [5]: 92.33 CELLS/uL
ABSOLUTE SEGMENTED NEUTROPHIL [5]: 964 CELLS/uL
BASOPHIL [5]: 0%
EOSINOPHIL [5]: 0.33%
ERYTHROCYTE COUNT [5]: 6.02 x10E6/uL
HEMATOCRIT [5]: 39.07%
HEMOGLOBIN [5]: 14.67 G/DL
LEUKOCYTE COUNT [5]: 13.4 x10E3/uL
LYMPHOCYTE [5]: 91.67%
MEAN CORPUSCULAR HEMOGLOBIN [5]: 24.4 pg
MEAN CORPUSCULAR HEMOGLOBIN CONCENTRATION [5]: 37.53 G/DL
MEAN CORPUSCULAR VOLUME [5]: 64.97 fL
MONOCYTE [5]: 0.67%
NEUTROPHIL [5]: 7.33%
NUCLEATED RED BLOOD CELLS [5]: 0 /100WBC
PLATELET COUNT [5]: 1258 x10E3/uL
ALANINE AMINOTRANSFERASE [5]: 66.67 u/L
ALBUMIN [5]: 4.63 G/DL
ALKALINE PHOSPHATASE [5]: 371.33 u/L
ASPARTATE AMINOTRANSFERASE [5]: 106.67 u/L
BLOOD UREA NITROGEN [5]: 5.67 mg/dL
CARBON DIOXIDE [5]: 26.33 mmol/L
CHOLESTEROL [5]: 43.33 mg/dL
CREATINE PHOSPHOKINASE [5]: 723.67 u/L
CREATININE [5]: 0.2 mg/dL
GLUCOSE [5]: 150.33 mg/dL
LACTATE DEHYDROGENASE [5]: 184.33 u/L
LIPASE [5]: 9.33 u/L
TOTAL BILIRUBIN [5]: 0.1 mg/dL
TOTAL PROTEIN [5]: 6.03 G/DL
URIC ACID [5]: 2.5 mg/dL
ABSOLUTE BASOPHIL [6]: 0 CELLS/uL
ABSOLUTE EOSINOPHIL [6]: 0 CELLS/uL
ABSOLUTE LYMPHOCYTE [6]: 12430.67 CELLS/uL
ABSOLUTE MONOCYTE [6]: 227.33 CELLS/uL
ABSOLUTE SEGMENTED NEUTROPHIL [6]: 2075.33 CELLS/uL
BASOPHIL [6]: 0%
EOSINOPHIL [6]: 0%
ERYTHROCYTE COUNT [6]: 6.29 x10E6/uL
HEMATOCRIT [6]: 39.17%
HEMOGLOBIN [6]: 14.9 G/DL
LEUKOCYTE COUNT [6]: 14.73 x10E3/uL
LYMPHOCYTE [6]: 84.33%
MEAN CORPUSCULAR HEMOGLOBIN [6]: 23.7 pg
MEAN CORPUSCULAR HEMOGLOBIN CONCENTRATION [6]: 38.07 G/DL
MEAN CORPUSCULAR VOLUME [6]: 62.27 fL
MONOCYTE [6]: 1.67%
NEUTROPHIL [6]: 14%
NUCLEATED RED BLOOD CELLS [6]: 0 /100WBC
PLATELET COUNT [6]: 1261.33 x10E3/uL
ALANINE AMINOTRANSFERASE [6]: 65.67 u/L
ALBUMIN [6]: 4.73 G/DL
ALKALINE PHOSPHATASE [6]: 464.33 u/L
ASPARTATE AMINOTRANSFERASE [6]: 99 u/L
BLOOD UREA NITROGEN [6]: 11.33 mg/dL
CARBON DIOXIDE [6]: 27.33 mmol/L
CHOLESTEROL [6]: 40.33 mg/dL
CREATINE PHOSPHOKINASE [6]: 288.67 u/L
CREATININE [6]: 0.23 mg/dL
GLUCOSE [6]: 136.67 mg/dL
LACTATE DEHYDROGENASE [6]: 164.33 u/L
LIPASE [6]: 9.67 u/L
TOTAL BILIRUBIN [6]: 0.1 mg/dL
